Data reported in ChEMBL document CHEMBL4507291 (2021).

How the values were obtained:
[1] = molecular target: T1, Ephrin type-B receptor 1 (Homo sapiens) (UniProt P54762)
T1 sequence (whole entry): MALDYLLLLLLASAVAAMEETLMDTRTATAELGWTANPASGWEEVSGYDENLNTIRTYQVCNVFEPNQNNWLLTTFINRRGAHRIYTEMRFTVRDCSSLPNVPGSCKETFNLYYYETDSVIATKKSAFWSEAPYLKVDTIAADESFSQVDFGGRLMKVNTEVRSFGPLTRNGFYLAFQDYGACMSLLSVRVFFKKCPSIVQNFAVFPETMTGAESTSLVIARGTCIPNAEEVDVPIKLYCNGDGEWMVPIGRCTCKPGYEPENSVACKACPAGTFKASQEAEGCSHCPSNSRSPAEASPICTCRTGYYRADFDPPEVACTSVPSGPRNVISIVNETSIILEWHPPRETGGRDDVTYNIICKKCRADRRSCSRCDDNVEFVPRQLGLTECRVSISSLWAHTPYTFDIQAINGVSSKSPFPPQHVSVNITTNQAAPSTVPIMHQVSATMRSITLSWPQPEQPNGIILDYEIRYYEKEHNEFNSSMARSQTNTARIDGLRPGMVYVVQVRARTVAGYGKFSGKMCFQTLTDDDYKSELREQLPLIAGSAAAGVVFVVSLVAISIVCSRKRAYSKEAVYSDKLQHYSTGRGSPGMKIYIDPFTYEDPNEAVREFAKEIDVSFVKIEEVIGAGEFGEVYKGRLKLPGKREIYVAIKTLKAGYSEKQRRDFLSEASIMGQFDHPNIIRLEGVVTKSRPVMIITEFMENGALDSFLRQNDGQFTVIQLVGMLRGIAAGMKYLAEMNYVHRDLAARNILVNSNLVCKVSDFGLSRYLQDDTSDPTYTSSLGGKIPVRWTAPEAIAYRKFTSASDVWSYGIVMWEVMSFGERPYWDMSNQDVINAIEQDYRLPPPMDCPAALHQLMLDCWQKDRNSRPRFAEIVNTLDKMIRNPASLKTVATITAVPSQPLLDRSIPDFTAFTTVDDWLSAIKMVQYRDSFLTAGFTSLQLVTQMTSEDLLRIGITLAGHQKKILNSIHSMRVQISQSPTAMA

[2] = molecular target: Death-associated protein kinase 3 (Homo sapiens) (UniProt O43293)
[3] = molecular target: Phosphatidylinositol 4-phosphate 5-kinase type-1 alpha (Homo sapiens) (UniProt Q99755)
[4] = molecular target: T2, Aurora kinase A (Homo sapiens) (UniProt O14965)
T2 sequence (whole entry): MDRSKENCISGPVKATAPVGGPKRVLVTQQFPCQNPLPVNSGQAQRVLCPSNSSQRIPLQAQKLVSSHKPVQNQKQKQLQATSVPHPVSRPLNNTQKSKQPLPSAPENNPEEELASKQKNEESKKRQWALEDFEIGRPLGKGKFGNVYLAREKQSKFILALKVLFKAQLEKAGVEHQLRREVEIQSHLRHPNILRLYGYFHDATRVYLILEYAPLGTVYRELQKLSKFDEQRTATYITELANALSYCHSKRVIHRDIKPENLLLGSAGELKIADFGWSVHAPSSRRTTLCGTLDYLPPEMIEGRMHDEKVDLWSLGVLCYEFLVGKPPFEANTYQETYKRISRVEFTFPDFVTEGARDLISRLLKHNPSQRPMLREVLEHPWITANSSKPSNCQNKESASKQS

[5] = molecular target: ALK tyrosine kinase receptor (Homo sapiens) (UniProt Q9UM73)
[6] = molecular target: Vascular endothelial growth factor receptor 2 (Homo sapiens) (UniProt P35968)
[7] = molecular target: Mitogen-activated protein kinase 4 (Homo sapiens) (UniProt P31152)
Rattus norvegicus = species on record: Rattus norvegicus; settings: Compound concentration 10.0 uM
[8] = molecular target: Rho-associated protein kinase 2 (Homo sapiens) (UniProt O75116)
[9] = molecular target: T3, Muscarinic acetylcholine receptor M5 (Homo sapiens) (UniProt P08912); settings: Compound concentration 10.0 uM
T3 sequence (whole entry): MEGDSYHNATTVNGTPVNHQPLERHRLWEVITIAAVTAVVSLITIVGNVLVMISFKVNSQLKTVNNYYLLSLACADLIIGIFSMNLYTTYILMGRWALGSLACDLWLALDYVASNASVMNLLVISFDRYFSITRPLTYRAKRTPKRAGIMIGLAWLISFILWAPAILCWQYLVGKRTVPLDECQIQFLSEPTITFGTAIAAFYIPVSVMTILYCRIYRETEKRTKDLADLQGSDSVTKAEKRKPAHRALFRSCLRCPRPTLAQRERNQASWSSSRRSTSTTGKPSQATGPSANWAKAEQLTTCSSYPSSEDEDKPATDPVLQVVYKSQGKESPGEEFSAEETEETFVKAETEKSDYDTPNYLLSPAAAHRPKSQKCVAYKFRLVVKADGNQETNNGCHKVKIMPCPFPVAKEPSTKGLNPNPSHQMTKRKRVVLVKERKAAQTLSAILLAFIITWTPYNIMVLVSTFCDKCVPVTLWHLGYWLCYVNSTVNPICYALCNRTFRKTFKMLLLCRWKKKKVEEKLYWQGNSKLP

[10] = molecular target: Sigma intracellular receptor 2 (Homo sapiens, UniProt Q5BJF2); assay: GPCRScan assay: inhibition of Sigma 2; design: radioligand conc. used [nm] 5.0, parental cells HEKT
[11] = Compound concentration 1000.0 nM
[12] = Compound concentration 100.0 nM

Sequence of Phosphatidylinositol 4-phosphate 5-kinase type-1 alpha (Homo sapiens) (Q99755 whole entry): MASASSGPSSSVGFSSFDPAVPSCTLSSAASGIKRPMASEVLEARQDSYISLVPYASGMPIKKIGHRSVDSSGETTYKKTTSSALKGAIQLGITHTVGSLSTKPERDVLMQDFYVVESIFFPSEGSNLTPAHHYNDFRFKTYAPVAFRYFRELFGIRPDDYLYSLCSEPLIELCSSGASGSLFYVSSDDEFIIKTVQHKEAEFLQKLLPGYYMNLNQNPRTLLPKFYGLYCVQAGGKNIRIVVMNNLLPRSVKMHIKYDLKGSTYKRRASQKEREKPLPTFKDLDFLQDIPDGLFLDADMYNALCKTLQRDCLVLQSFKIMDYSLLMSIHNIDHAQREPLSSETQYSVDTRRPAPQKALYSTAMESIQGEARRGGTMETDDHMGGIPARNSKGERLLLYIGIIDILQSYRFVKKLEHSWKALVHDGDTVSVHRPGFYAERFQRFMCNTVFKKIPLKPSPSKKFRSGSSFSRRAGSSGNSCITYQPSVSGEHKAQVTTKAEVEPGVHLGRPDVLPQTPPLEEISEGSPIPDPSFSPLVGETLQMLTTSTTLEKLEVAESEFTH
Sequence of Mitogen-activated protein kinase 4 (Homo sapiens) (P31152 whole entry): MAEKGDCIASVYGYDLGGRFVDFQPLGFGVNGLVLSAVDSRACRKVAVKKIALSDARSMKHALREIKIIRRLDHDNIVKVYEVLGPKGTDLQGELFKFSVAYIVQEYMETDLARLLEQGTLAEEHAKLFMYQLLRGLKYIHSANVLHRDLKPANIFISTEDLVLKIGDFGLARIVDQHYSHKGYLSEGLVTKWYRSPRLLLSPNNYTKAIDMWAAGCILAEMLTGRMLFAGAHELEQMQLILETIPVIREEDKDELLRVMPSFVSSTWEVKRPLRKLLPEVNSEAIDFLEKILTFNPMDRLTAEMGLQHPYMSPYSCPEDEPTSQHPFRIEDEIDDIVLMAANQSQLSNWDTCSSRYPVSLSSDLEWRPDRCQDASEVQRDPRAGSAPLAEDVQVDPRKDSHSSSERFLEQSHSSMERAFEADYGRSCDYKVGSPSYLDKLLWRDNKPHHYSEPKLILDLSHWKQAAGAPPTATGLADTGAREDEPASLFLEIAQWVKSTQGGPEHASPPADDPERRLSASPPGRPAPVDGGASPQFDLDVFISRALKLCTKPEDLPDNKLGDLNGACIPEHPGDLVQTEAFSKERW
Sequence of ALK tyrosine kinase receptor (Homo sapiens) (Q9UM73 19-1620 limits assumed): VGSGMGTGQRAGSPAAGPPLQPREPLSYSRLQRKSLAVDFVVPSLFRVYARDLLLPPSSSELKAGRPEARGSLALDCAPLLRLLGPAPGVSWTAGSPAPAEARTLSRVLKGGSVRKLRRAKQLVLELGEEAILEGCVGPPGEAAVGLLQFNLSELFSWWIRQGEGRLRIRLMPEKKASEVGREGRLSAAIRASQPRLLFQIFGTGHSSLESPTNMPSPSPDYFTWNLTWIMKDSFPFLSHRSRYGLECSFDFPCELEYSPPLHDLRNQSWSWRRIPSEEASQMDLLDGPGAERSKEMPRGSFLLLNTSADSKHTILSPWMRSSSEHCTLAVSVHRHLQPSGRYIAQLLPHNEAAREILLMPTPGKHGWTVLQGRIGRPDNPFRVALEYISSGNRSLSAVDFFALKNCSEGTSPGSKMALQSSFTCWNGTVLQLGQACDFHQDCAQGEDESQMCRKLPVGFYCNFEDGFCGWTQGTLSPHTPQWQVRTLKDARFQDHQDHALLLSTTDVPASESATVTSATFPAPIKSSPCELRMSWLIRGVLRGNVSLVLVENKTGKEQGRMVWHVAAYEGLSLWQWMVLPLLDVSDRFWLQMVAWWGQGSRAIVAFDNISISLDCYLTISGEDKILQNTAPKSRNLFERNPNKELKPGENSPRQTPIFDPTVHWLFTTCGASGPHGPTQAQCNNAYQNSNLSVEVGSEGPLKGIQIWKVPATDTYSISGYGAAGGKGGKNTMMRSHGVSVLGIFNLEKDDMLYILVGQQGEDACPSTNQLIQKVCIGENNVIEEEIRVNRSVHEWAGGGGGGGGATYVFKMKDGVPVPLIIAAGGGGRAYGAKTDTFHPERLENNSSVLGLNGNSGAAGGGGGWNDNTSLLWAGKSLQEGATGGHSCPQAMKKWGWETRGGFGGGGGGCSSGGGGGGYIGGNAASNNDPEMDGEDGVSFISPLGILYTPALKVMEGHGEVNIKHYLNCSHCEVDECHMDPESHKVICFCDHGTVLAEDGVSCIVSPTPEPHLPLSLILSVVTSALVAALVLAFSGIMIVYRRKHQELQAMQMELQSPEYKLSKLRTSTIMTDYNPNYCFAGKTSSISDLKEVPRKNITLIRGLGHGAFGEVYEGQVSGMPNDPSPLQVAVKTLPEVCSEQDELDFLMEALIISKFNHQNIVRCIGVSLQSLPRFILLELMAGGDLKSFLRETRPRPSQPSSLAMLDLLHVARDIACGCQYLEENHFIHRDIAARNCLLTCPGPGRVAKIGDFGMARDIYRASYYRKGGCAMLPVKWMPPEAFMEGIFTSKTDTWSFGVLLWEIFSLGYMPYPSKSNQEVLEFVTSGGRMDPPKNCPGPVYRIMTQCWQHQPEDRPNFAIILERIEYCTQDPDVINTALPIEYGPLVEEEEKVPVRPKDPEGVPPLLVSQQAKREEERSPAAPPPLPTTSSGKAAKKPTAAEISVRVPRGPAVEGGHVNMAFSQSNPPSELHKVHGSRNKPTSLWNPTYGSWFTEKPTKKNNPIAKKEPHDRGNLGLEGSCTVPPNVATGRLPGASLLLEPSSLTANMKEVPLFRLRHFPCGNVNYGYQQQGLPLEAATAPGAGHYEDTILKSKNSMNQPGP
Sequence of Vascular endothelial growth factor receptor 2 (Homo sapiens) (P35968 whole entry): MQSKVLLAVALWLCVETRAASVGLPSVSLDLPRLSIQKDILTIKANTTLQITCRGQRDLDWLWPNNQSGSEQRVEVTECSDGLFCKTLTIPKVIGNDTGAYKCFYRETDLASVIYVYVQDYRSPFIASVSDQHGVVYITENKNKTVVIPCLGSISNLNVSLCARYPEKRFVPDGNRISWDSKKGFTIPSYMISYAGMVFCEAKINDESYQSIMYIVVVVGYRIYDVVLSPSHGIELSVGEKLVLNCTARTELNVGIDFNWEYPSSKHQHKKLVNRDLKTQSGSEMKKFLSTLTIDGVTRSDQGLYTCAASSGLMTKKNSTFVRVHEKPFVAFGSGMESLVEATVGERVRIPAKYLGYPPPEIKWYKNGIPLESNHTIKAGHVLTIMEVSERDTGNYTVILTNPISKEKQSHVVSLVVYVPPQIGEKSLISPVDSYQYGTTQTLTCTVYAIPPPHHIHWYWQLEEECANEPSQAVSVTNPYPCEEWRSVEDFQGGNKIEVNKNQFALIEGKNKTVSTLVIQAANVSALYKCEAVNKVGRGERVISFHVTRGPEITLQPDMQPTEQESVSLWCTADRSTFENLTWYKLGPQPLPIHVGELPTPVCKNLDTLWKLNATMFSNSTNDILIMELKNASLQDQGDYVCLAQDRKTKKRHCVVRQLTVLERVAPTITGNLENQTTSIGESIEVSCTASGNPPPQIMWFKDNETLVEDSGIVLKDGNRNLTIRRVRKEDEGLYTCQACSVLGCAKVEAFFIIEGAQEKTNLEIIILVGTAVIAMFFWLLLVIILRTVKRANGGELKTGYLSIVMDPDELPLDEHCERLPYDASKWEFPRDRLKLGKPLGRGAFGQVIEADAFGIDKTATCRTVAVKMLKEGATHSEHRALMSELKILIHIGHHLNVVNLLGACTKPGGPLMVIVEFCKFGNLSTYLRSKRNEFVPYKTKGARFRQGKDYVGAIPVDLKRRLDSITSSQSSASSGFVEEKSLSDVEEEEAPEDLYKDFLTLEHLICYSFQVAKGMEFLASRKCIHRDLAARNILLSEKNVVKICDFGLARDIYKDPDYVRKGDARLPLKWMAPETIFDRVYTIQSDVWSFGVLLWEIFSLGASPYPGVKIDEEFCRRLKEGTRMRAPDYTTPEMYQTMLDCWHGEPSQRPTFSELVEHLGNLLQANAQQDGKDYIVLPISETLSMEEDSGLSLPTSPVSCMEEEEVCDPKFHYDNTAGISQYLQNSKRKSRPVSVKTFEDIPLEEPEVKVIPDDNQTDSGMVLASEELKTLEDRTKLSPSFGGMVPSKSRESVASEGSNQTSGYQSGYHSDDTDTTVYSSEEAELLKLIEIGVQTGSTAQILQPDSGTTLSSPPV
Sequence of Death-associated protein kinase 3 (Homo sapiens) (O43293 whole entry, looked up): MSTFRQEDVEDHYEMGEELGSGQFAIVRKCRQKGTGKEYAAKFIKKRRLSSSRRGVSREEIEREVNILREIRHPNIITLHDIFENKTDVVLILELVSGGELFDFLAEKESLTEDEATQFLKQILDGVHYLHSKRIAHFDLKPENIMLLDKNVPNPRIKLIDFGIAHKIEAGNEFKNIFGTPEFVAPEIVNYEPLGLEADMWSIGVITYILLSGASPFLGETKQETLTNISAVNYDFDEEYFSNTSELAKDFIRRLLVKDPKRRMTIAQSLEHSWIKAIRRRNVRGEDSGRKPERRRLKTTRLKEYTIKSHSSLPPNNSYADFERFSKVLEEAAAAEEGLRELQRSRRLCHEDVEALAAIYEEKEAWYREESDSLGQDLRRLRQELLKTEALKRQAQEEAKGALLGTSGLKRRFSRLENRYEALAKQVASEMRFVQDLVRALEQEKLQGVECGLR
Sequence of Sigma intracellular receptor 2 (Q5BJF2 whole entry): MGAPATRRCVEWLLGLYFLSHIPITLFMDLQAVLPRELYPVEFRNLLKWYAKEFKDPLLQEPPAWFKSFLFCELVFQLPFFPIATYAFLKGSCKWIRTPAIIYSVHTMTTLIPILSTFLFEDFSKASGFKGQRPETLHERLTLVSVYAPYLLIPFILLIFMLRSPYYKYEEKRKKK

Compound | residual activity [1, 11] | residual activity [2, 11] | residual activity [3, 11] | residual activity [4, 11] | residual activity [5, 11] | residual activity [6, 11] | residual activity [7, 11] | inhibition (Rattus norvegicus) | residual activity [8, 11] | inhibition [9] | Ki [10] | residual activity [1, 12] | residual activity [2, 12] | residual activity [3, 12] | residual activity [4, 12] | residual activity [5, 12] | residual activity [6, 12] | residual activity [7, 12] | residual activity [8, 12]
C[C@@H]1CN(c2cc(-c3nn(C)c4ccc(OC5(C)CC5)cc34)ncn2)C[C@H](C)O1 [MLi-2-NC] | 99% | 89% | 100% | 100% | 64% | 75% | 93% | 46.1% | 97% | 2.87% | 1070 nM |  |  |  |  |  |  |  | 
C[C@@H]1CN(c2cc(-c3n[nH]c4ccc(OC5(C)CC5)cc34)ncn2)C[C@H](C)O1 [MLi-2] |  |  |  |  |  |  |  | 5.96% |  | 1% | 4600 nM | 83% | 96% | 100% | 94% | 65% | 82% | 83% | 89%
